Laboratory results from ChEMBL document CHEMBL3991601, “The target landscape of clinical kinase drugs” (Science, 2017).
Active and inactive are the calls of the source.

Assays:
[1] = biological target: Serine/threonine-protein kinase SIK2 (Homo sapiens, UniProt Q9H0K1)
[2] = biological target: Mitogen-activated protein kinase 11 (Homo sapiens, UniProt Q15759)
[3] = biological target: Mitogen-activated protein kinase 9 (Homo sapiens, UniProt P45984)
GTP-binding protein 4 = GTP-binding protein 4 (Homo sapiens, UniProt Q9BZE4)
[4] = biological target: T1, Structural maintenance of chromosomes protein 1A (Homo sapiens, UniProt Q14683)
T1 sequence (Q14683 whole entry): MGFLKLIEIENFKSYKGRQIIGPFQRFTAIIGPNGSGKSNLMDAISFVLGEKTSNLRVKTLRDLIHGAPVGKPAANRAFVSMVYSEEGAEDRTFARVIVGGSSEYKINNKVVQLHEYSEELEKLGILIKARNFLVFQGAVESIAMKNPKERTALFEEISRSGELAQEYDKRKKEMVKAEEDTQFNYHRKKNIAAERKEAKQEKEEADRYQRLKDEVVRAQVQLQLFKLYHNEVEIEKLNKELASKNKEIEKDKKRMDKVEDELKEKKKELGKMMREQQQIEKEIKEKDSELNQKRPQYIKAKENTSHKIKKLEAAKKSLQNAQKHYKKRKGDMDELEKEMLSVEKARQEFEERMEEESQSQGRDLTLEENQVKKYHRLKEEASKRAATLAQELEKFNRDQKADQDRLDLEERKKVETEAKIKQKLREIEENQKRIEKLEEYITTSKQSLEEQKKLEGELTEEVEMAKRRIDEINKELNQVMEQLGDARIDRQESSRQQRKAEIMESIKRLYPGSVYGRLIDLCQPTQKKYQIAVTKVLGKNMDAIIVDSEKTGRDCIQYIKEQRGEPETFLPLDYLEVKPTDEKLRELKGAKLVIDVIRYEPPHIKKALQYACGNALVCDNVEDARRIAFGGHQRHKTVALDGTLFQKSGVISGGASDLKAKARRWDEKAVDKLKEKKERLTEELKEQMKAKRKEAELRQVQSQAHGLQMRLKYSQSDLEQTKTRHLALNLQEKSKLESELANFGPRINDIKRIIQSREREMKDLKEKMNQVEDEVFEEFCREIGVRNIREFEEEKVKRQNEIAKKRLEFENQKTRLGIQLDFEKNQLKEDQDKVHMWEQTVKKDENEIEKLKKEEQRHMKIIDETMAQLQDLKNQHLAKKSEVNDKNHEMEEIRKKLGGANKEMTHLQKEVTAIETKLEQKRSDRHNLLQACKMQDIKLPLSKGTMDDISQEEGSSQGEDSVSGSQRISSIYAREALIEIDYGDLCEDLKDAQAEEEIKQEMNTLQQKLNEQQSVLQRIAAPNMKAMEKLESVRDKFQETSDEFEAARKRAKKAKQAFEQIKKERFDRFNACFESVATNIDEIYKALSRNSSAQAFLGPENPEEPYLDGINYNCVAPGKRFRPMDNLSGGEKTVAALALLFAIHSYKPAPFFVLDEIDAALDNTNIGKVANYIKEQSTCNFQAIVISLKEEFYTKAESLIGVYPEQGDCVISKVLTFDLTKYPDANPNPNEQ

[5] = biological target: Mitogen-activated protein kinase 3 (Homo sapiens, UniProt P27361)
Mitogen-activated protein kinase 3, sequence (P27361 whole entry): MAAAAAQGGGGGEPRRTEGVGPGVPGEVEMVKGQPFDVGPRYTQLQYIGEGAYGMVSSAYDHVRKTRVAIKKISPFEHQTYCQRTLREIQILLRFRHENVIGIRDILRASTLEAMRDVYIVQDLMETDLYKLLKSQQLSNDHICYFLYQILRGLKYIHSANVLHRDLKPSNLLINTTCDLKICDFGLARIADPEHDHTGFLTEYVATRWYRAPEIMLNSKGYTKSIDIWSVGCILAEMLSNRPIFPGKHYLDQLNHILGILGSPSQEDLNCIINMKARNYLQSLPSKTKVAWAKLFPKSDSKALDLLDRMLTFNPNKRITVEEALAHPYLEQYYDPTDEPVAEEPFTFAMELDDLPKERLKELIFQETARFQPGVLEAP

[6] = biological target: Cyclin-dependent kinase 3 (Homo sapiens, UniProt Q00526)
Cyclin-dependent kinase 3, sequence (Q00526 whole entry): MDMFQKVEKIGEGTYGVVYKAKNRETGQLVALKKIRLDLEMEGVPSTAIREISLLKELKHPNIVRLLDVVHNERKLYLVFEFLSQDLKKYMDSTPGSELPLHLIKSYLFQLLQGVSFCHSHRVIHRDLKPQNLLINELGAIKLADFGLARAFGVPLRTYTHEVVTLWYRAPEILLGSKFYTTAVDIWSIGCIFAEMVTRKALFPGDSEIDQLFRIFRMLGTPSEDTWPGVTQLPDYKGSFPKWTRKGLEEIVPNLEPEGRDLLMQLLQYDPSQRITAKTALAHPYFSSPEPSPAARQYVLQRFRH

[7] = biological target: Serine/threonine-protein kinase 26 (Homo sapiens, UniProt Q9P289)
[8] = biological target: DNA topoisomerase 2-alpha (Homo sapiens, UniProt P11388)
DNA topoisomerase 2-alpha, sequence (P11388 whole entry): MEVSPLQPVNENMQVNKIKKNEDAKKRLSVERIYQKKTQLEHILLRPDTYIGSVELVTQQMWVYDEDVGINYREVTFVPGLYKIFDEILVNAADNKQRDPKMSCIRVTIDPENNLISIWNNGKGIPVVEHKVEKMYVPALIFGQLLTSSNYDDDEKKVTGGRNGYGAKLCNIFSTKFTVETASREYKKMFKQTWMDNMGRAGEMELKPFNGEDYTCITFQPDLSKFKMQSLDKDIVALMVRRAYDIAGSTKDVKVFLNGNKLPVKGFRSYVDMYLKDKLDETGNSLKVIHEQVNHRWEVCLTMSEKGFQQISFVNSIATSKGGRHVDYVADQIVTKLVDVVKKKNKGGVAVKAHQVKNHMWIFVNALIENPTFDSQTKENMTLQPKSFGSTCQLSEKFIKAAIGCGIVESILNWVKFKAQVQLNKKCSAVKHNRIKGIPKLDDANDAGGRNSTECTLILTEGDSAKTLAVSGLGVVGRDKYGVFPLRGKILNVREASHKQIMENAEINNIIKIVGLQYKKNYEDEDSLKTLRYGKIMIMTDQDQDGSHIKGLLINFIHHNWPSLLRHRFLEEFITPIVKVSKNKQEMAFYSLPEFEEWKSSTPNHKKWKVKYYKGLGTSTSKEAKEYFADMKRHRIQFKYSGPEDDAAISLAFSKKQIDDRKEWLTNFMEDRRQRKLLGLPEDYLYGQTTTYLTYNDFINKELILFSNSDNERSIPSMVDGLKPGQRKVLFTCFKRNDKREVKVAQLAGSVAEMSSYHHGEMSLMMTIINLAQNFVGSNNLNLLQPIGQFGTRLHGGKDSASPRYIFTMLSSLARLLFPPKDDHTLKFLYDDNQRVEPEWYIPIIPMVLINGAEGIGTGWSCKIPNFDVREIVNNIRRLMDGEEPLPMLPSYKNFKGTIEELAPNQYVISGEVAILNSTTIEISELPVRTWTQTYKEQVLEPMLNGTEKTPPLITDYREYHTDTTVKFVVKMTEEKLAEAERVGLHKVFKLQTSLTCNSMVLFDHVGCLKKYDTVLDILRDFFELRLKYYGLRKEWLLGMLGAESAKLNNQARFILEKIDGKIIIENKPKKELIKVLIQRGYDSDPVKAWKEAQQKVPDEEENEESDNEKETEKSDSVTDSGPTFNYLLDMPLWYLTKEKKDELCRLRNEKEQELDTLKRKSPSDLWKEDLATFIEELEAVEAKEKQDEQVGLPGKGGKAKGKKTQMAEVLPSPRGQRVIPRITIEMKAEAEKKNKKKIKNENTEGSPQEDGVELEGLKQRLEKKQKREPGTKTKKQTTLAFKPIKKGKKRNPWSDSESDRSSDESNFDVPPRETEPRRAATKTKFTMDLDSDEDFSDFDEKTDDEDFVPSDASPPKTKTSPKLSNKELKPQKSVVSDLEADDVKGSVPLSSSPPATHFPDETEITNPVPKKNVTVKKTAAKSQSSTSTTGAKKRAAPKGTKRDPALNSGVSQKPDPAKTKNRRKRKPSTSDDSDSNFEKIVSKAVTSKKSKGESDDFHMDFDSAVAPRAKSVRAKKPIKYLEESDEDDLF

[9] = biological target: Receptor-interacting serine/threonine-protein kinase 2 (Homo sapiens, UniProt O43353)
Receptor-interacting serine/threonine-protein kinase 2, sequence (O43353 whole entry): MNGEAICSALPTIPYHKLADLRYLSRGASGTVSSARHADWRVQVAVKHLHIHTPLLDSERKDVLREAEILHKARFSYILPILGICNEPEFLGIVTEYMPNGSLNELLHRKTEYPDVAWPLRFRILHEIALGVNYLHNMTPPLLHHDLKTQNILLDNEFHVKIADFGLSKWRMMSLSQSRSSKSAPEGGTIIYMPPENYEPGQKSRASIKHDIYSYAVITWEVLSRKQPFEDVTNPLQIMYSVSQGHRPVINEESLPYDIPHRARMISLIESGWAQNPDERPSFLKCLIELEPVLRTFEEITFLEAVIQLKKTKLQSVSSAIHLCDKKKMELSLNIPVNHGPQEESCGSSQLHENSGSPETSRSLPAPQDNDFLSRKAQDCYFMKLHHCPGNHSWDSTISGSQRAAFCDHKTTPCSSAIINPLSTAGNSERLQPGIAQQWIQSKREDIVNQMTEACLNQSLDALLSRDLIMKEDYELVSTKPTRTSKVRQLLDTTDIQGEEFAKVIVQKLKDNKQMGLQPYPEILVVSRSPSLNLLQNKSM

[10] = biological target: Ras-related protein Rab-6A (Homo sapiens, UniProt P20340)
Ras-related protein Rab-6A, sequence (P20340 whole entry): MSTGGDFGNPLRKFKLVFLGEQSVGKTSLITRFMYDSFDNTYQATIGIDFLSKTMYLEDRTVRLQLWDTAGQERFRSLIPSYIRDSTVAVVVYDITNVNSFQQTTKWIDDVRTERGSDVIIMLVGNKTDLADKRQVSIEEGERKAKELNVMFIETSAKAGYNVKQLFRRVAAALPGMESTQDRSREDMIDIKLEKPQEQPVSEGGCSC

[11] = biological target: T2, ATP-dependent 6-phosphofructokinase, platelet type (Homo sapiens, UniProt Q01813)
T2 sequence (Q01813 whole entry): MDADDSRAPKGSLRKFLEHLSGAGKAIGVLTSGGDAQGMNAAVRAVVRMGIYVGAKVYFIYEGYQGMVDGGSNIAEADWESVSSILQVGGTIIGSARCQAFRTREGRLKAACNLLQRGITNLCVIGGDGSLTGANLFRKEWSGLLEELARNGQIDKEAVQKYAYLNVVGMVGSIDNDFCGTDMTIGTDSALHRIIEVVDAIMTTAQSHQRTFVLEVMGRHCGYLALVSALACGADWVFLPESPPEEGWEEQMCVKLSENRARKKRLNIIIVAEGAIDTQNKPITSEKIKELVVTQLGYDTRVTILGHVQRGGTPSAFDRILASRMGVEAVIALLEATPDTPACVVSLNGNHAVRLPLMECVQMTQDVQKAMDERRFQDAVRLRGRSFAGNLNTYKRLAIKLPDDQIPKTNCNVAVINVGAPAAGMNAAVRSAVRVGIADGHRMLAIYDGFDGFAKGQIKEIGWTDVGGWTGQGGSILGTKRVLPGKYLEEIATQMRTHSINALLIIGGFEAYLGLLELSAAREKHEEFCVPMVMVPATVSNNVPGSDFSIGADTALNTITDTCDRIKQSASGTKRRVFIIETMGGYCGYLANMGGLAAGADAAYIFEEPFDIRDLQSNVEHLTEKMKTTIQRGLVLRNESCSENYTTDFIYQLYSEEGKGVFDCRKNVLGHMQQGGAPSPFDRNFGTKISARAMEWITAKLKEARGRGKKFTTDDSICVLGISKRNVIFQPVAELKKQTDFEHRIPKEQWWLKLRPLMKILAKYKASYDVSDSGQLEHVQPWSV

[12] = biological target: Tyrosine-protein kinase SYK (Homo sapiens, UniProt P43405)
[13] = biological target: cAMP-dependent protein kinase catalytic subunit gamma (Homo sapiens, UniProt P22612)
cAMP-dependent protein kinase catalytic subunit gamma, sequence (P22612 whole entry): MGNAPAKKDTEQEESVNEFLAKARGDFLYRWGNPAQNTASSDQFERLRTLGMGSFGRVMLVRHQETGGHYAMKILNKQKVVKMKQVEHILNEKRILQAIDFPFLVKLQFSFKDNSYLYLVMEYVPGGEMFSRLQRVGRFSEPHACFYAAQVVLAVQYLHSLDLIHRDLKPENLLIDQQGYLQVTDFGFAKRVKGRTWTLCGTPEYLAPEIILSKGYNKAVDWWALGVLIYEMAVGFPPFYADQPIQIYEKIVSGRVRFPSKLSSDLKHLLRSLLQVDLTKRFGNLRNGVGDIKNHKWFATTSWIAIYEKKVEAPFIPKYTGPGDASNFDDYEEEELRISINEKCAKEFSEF
Note: in the data inactive means no Kd found up to 30 µM.

Serine/threonine-protein kinase SIK2, sequence (Q9H0K1 whole entry): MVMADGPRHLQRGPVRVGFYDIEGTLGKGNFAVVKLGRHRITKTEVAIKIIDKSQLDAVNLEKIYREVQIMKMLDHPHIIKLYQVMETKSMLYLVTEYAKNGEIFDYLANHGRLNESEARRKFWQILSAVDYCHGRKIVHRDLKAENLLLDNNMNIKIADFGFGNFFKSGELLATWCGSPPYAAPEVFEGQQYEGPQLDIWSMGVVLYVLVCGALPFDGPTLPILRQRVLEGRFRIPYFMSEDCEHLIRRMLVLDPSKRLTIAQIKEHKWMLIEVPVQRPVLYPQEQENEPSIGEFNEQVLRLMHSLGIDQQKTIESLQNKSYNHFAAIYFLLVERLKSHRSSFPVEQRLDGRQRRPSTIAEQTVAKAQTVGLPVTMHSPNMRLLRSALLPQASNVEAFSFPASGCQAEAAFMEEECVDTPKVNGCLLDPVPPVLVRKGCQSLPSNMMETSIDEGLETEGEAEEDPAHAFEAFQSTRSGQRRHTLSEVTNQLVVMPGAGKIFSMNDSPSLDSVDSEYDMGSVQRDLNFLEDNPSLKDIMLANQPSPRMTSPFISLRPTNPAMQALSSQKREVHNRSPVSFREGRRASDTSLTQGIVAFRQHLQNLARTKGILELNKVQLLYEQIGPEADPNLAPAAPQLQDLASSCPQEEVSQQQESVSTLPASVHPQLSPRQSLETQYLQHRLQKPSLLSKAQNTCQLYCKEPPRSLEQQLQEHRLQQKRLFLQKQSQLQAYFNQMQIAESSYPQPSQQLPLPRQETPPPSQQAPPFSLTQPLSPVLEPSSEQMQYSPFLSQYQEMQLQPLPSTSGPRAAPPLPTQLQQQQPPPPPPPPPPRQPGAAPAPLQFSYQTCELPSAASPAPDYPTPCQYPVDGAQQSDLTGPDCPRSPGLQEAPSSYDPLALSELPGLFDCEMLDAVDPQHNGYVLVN
Mitogen-activated protein kinase 9, sequence (P45984 whole entry): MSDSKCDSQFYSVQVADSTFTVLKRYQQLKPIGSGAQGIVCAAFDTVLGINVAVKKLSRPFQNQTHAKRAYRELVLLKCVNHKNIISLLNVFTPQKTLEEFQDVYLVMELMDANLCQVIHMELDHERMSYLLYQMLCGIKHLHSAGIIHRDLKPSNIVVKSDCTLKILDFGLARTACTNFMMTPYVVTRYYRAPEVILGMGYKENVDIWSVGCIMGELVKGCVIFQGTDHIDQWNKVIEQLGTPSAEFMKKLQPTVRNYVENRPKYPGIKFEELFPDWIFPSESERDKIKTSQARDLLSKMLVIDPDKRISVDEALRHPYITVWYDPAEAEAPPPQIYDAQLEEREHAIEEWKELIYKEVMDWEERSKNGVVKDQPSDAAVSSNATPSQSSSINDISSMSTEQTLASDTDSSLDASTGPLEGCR

| Kd [1] | Kd [2] | Kd [3] | Kd (GTP-binding protein 4) | Kd [4] | Kd [5] | Kd [6] | Kd [7] | Kd [8] | Kd [9] | Kd [10] | Kd [11] | Kd [12] | Kd [13] | Structure (SMILES) |
| --- | --- | --- | --- | --- | --- | --- | --- | --- | --- | --- | --- | --- | --- | --- |
| > 30 µM (inactive) | > 30 µM (inactive) | > 30 µM (inactive) | > 30 µM (inactive) | > 30 µM (inactive) | > 30 µM (inactive) | > 30 µM (inactive) | > 30 µM (inactive) | > 30 µM (inactive) | > 30 µM (inactive) | > 30 µM (inactive) | > 30 µM (inactive) | > 30 µM (inactive) |  | Cn1ncc(Cl)c1-c1cc(C(=O)N[C@H](CN)Cc2cccc(F)c2)sc1Cl [AFURESERTIB] |
| > 30 µM (inactive) | > 30 µM (inactive) | > 30 µM (inactive) | > 30 µM (inactive) | > 30 µM (inactive) | > 30 µM (inactive) | > 30 µM (inactive) | > 30 µM (inactive) | > 30 µM (inactive) | 0.427 µM (active) | > 30 µM (inactive) | > 30 µM (inactive) | > 30 µM (inactive) |  | CCCS(=O)(=O)Nc1ccc(F)c(C(=O)c2c[nH]c3ncc(-c4ccc(Cl)cc4)cc23)c1F [VEMURAFENIB] |
| > 30 µM (inactive) | > 30 µM (inactive) | > 30 µM (inactive) | > 30 µM (inactive) | > 30 µM (inactive) | > 30 µM (inactive) | > 30 µM (inactive) |  | > 30 µM (inactive) | > 30 µM (inactive) | > 30 µM (inactive) | > 30 µM (inactive) | > 30 µM (inactive) |  | CNS(=O)(=O)Nc1nccc(Cc2c(C)c3ccc(Oc4ncccn4)cc3oc2=O)c1F [AVUTOMETINIB] |
| > 30 µM (inactive) | > 30 µM (inactive) | > 30 µM (inactive) | > 30 µM (inactive) | > 30 µM (inactive) | > 30 µM (inactive) | > 30 µM (inactive) | > 30 µM (inactive) | > 30 µM (inactive) | > 30 µM (inactive) | > 30 µM (inactive) | > 30 µM (inactive) | > 30 µM (inactive) |  | O=C(O)[C@]1(Cc2cccc(Nc3nccs3)n2)CC[C@@H](Oc2cccc(Cl)c2F)CC1 [MK-5108] |
| > 30 µM (inactive) | > 30 µM (inactive) |  | > 30 µM (inactive) |  | > 30 µM (inactive) | > 30 µM (inactive) | > 30 µM (inactive) | > 30 µM (inactive) | > 30 µM (inactive) | > 30 µM (inactive) | > 30 µM (inactive) | > 30 µM (inactive) |  | OCCn1cc(-c2cnc3nnn(Cc4ccc5ncccc5c4)c3n2)cn1 [PF-04217903] |
| 1.4 µM (active) | > 30 µM (inactive) |  | > 30 µM (inactive) | > 30 µM (inactive) | > 30 µM (inactive) |  | 0.013 µM | > 30 µM (inactive) |  | > 30 µM (inactive) | > 30 µM (inactive) |  |  | Cc1nc(N)sc1-c1ccnc(Nc2ccc(N3CCOCC3)cc2)n1 [CYC-116] |
|  |  |  | > 30 µM (inactive) | > 30 µM (inactive) |  |  |  |  |  | > 30 µM (inactive) | > 30 µM (inactive) |  | > 30 µM (inactive) | CN1CCN(c2ccc3nc(-c4c(N)c5c(F)cccc5[nH]c4=O)[nH]c3c2)CC1 [DOVITINIB] |
| > 30 µM (inactive) |  |  | > 30 µM (inactive) | > 30 µM (inactive) | > 30 µM (inactive) | > 30 µM (inactive) | > 30 µM (inactive) |  | > 30 µM (inactive) | > 30 µM (inactive) | > 30 µM (inactive) | > 30 µM (inactive) |  | CNC(=O)c1ccc(C)c(-n2c(C)cc(OCc3ccc(F)cc3F)c(Br)c2=O)c1 [PH-797804] |
|  |  |  | > 30 µM (inactive) |  |  |  |  | > 30 µM (inactive) |  | > 30 µM (inactive) | > 30 µM (inactive) |  | > 30 µM (inactive) | Nc1nc(N)c2nc(-c3cccc(O)c3)c(-c3cccc(O)c3)nc2n1 [TG100-115] |
| > 30 µM (inactive) | > 30 µM (inactive) | > 30 µM (inactive) | > 30 µM (inactive) | > 30 µM (inactive) | > 30 µM (inactive) | > 30 µM (inactive) |  | > 30 µM (inactive) | > 30 µM (inactive) | > 30 µM (inactive) | > 30 µM (inactive) | > 30 µM (inactive) |  | COc1cc(CCc2cc(NC(=O)c3ccc(N4C[C@@H](C)N[C@@H](C)C4)cc3)n[nH]2)cc(OC)c1 [AZD-4547] |
|  |  |  |  | > 30 µM (inactive) |  |  |  | > 30 µM (inactive) |  | > 30 µM (inactive) | > 30 µM (inactive) |  | > 30 µM (inactive) | CCn1c(-c2nonc2N)nc2c(C#CC(C)(C)O)ncc(OC[C@H]3CCCNC3)c21 [GSK-690693] |
| > 30 µM (inactive) | > 30 µM (inactive) | > 30 µM (inactive) | > 30 µM (inactive) | > 30 µM (inactive) | > 30 µM (inactive) | > 30 µM (inactive) | > 30 µM (inactive) | > 30 µM (inactive) | > 30 µM (inactive) | > 30 µM (inactive) | > 30 µM (inactive) | > 30 µM (inactive) |  | CC[C@@H]1C(=O)N(C)c2cnc(Nc3ccc(C(=O)N[C@H]4CC[C@H](N5CCN(CC6CC6)CC5)CC4)cc3OC)nc2N1C(C)C [VOLASERTIB] |
| > 30 µM (inactive) | > 30 µM (inactive) | > 30 µM (inactive) | > 30 µM (inactive) | > 30 µM (inactive) | > 30 µM (inactive) | > 30 µM (inactive) | > 30 µM (inactive) | > 30 µM (inactive) | > 30 µM (inactive) | > 30 µM (inactive) | > 30 µM (inactive) | 2.68 µM (active) |  | COCCNCc1ccc(-c2cc3nccc(Oc4ccc(NC(=S)NC(=O)Cc5ccc(F)cc5)cc4F)c3s2)nc1 [GLESATINIB] |

| Structure (SMILES) | Kd [1] | Kd [2] | Kd [3] | Kd (GTP-binding protein 4) | Kd [4] | Kd [5] | Kd [6] | Kd [7] | Kd [8] | Kd [9] | Kd [10] | Kd [11] | Kd [12] | Kd [13] |
| --- | --- | --- | --- | --- | --- | --- | --- | --- | --- | --- | --- | --- | --- | --- |
| Cc1cn(-c2cc(NC(=O)c3ccc(C)c(Nc4nccc(-c5cccnc5)n4)c3)cc(C(F)(F)F)c2)cn1 [NILOTINIB] |  |  |  | > 30 µM (inactive) | > 30 µM (inactive) |  |  |  | > 30 µM (inactive) |  | > 30 µM (inactive) | > 30 µM (inactive) |  | > 30 µM (inactive) |
| O=C(Nc1cccc(Cl)c1)Nc1ncc(CCNc2ncnc3ccsc23)s1 [SNS-314] | > 30 µM (inactive) | > 30 µM (inactive) |  | > 30 µM (inactive) | > 30 µM (inactive) | > 30 µM (inactive) | > 30 µM (inactive) | > 30 µM (inactive) | > 30 µM (inactive) | > 30 µM (inactive) | > 30 µM (inactive) | > 30 µM (inactive) |  |  |
